{"source": "paper PMC10644720", "about": "(Frontiers in Pharmacology, 2023)", "key": {"human washed platelets [1]": {"test_system": "human washed platelets", "experiment": "Platelet-collagen static adhesion assay", "assay_type": "cell-based", "protocol": "As previously reported ([Banfi et al., 2022]), 50 μg/mL collagen and 25 μg/mL fibrinogen (Cat No. F3879-100 MG; Sigma-Aldrich, St. Louis, MO, United States) were used to coat coverslips overnight at 4°C. […] The coated slides were washed three times with PBS and blocked with 1% BSA (prepared in PBS) for 1 h at room temperature. The blocking solution was removed, and WPs were added for adhesion experiments. The WPs were allowed to adhere to the slides for 15–60 min at 37°C. The unadhered platelets were removed by PBS. The platelets were fixed with 2% paraformaldehyde solution for 15 min, broken using 1% Triton-100 for 5 min, and stained with phalloidin (1:1,000, Cat No.17466-45-4, Sigma-Aldrich) for 30 min away from light at room temperature. The platelet morphology was observed using an Olympus ix73 microscope (Olympus Corp., Shinjuku, Japan) and photographed. The number of platelet adhesions and spreading area were analyzed and calculated using ImageJ software."}, "human washed platelets [2]": {"test_system": "human washed platelets", "experiment": "MDA, SOD and GPx activity in platelet lysate supernatant", "assay_type": "cell-based", "conditions": "convulxin- and collagen-induced", "protocol": "MDA, SOD, GPx, and NADPH oxidase activity were measured as previously described ([Krotz et al., 2002]; [Paul et al., 2019]; [Pan et al., 2021]). After incubation and activation, the reaction was stopped by adding 10 mM EGTA. The platelets were pelleted by centrifugation at 20,000 × g for 10 min at 4°C and resuspended in Tyrode’s buffer with 0.1% phosphatase and protease inhibitors (Cat No. 04906837001, Roche Applied Science, Penzberg, Germany; Cat No. P-8340, Sigma, St. Louis, MO, United States). The platelets were disrupted by passing them 10 times through a 29-gauge needle, followed by centrifugation at 2000 × g for 10 min at 4°C to separate the supernatant and precipitate. The detection of MDA, SOD, and GPx in the supernatant was performed according to the kit’s instructions for SOD (Cat No. BC0170, Solarbio Life Science, Beijing, China), MDA (Cat No. S0131S, Beyotime Institute of Biotechnology, Shanghai, China) and GPx (Cat No. S0056, Beyotime Institute of Biotechnology, Shanghai, China). In order to determine NADPH oxidase (NOX) activity, platelet lysate (12.5 μg) was incubated with 10 µM lucigenin and 0.5 mM NADPH at 37°C in the dark. The absorbance values were detected at 450 nm using a spectrophotometer Multiskan FC (ThermoFisher Scientific Inc., Waltham, MA, United States). Protein content was determined by the Bradford method."}, "coagulation factor X": {"test_system": "coagulation factor X", "design": "method as in Choi et al. (2015)", "conditions": "ref Choi et al. (2015); cited from earlier work"}, "GPVI signaling": {"test_system": "GPVI signaling", "experiment": "Western blot of ITAM and MAPK signaling molecules", "assay_type": "cell-based, human", "conditions": "convulxin-induced", "protocol": "A lysis buffer (5x, PBS, PH7.4, comprising 2.5% sodium dodecyl sulfate [SDS], 5% deoxycholate, 5% vol/vol Triton X-100, phosphatase and proteinase inhibitors cocktails) was used to lyse the cells on ice for 30 min. The platelet lysate was centrifuged at 12,000 rpm for 10 min at 4°C. The supernatant was added to 5× protein loading buffer and boiled. The proteins were separated by 10% SDS-PAGE gels and transferred to membranes. The PVDF membranes were blocked in EveryBlot Blocking buffer (Cat No. 12010020; Bio-Rad, Hercules, CA, United States) for 10 min. […] The intensity of the target bands was assessed by ImageJ software."}, "[3]": {"test_system": "mesenteric artery thrombosis", "experiment": "Ferric chloride-induced mesenteric thrombosis in mice", "assay_type": "in vivo, C57BL/6 mice", "conditions": "luteolin 35 μM/kg or aspirin 0.5 mM/kg i.p., 30 min before FeCl3", "protocol": "A method reported in the literature was used to observe mesenteric artery thrombosis in mice ([Bonnard and […], 2015]). […] The mice were anesthetized by an intraperitoneal injection of pentobarbital (45 mg/kg). They were given an intraperitoneal injection of DMSO, luteolin, or aspirin. They were also given an orbital vein injection of 5 μg/kg rhodamine (Cat No. 83697-250 MG; Sigma-Aldrich, St. Louis, MO, United States) ([Bonnard and […], 2015]), respectively. The mesenteric vessels were exposed by opening the abdominal cavity, and small mesenteric arteries with a diameter of approximately 150-250 μm were selected under the microscope. […] During thrombosis, images were taken every 1 min for the first 10 min and every 5 min after 10 min using an MSHOT MD50 camera (Micro Shot Technology Ltd., Guangzhou, China) and an Olympus ix73 microscope (Olympus Corp., Shinjuku, Japan). […] The size of the thrombus formation was calculated using ImageJ software."}}}
{"smiles": "O=c1cc(-c2ccc(O)c(O)c2)oc2cc(O)cc(O)c12", "note": "[Luteolin]", "values": [{"measurement": "adherent area vs vehicle", "setting": "human washed platelets [1]; luteolin 25 µM, at 15, 30, 45, and 60 min", "result": "decreased"}, {"measurement": "surface per platelet vs vehicle", "setting": "human washed platelets [1]; luteolin 25 µM, at 15, 45, and 60 min", "result": "decreased"}, {"measurement": "surface per platelet vs vehicle", "setting": "human washed platelets [1]; luteolin 2.5 and 10 µM, at 15 and 45 min", "result": "decreased"}, {"measurement": "adherent area vs vehicle", "setting": "human washed platelets [1]; luteolin 2.5 and 10 µM, at 60 min", "result": "slightly decreased"}, {"measurement": "platelet adherence (number of adherent platelets) on collagen vs vehicle", "setting": "human washed platelets [1]; luteolin 10 and 25 µM, at 45 and 60 min", "result": "significantly decreased"}, {"measurement": "GPx activity", "setting": "human washed platelets [2]", "result": "promoted"}, {"measurement": "MDA activity", "setting": "human washed platelets [2]", "result": "inhibited"}, {"measurement": "SOD activity", "setting": "human washed platelets [2]", "result": "promoted"}, {"measurement": "coagulation factor X activity", "setting": "coagulation factor X", "result": "effectively inhibits"}, {"measurement": "phosphorylation of MAPK and ITAM", "setting": "GPVI signaling; Erk 1/2, SAPK/JNK, p38 MAPK", "result": "significant inhibitory effect"}, {"measurement": "phosphorylation of Src, Syk, PLCγ2, Akt and GSK-3β", "setting": "GPVI signaling; non-aggregating conditions", "result": "inhibited"}, {"measurement": "time of clot obstruction of blood vessels", "setting": "[3]", "result": "significantly prolong"}, {"measurement": "time of initial thrombus formation", "setting": "[3]", "result": "Neither the 0.5 mM/kg aspirin group or 35 μM/kg luteolin group prolonged"}]}
